The record followed here is patent US20170209514A1, “Method For Promoting Bone Length Growth” (Novatec Co., Ltd., priority 2013, published 2017).

Format in all cases: in vivo, Sprague-Dawley rats
One data set has as its system tibia. The data set is described as follows: Measurement of changes in tibia length by X-ray. The settings on record: rats, after 10-day administration, vs Control group, FIGS. 3A-3C & 4. The protocol: (§1) 3 weeks-old, male Sprague-Dawley rats were obtained and stabilized for 3 days. The feeding conditions included the temperature of 24±2° C., the light-dark cycle of 12 hours, and common solid feed without the inclusion of antibiotics. While the Control group was treated with saline solution, the bamboo (Bambusae caulis in Taeniam) extract, which was prepared in the powder form as described in the above example 1 and added with water, was orally administered once daily. The Positive Control group was treated subcutaneously with the injection of Eutropin (LG Life Sciences, South Korea) at 20 μg/kg once daily.
(§2) The administered substances and dosages in each group are as follows: • Control Group: normal saline solution 1 ml • Positive Control Group: growth hormone 20 μg/kg • Bamboo (Bambusae caulis in Taeniam)-treated Group: 200 mg/kg
(§3) After 10 days of feeding and administration of the above-mentioned substances, the rats were sacrificed with autopsy performed to find the following results.
After 10-day administration as described in Experiment <1-1>, both right and left tibias of the rats in the experimental group (i.e. Bamboo (Bambusae caulis in Taeniam) extract-treated group) and the control groups were collected, followed by the removal of the muscles, fats and ligaments attached to the bone tissues. […] Tibia length was measured by X-ray radiographs on the tibias.

The next data set relates to osteocalcin. The data set is described as follows: Osteoblast-activating factor osteocalcin in the serum (ELISA). The following applies: rats, after 10-day administration, in comparison with the Control group, FIG. 10. The method, then:
as §1, §2, §3
After the completion of the administration, blood was collected from the hearts of the experimental rats and coagulated. Serum was then separated so as to obtain samples. Subsequently, the total level of osteocalcin in the serum was measured by using Rat Ostecalcin/Bone Gla Protein. OT/BGP ELISA Kit (Cusabio, product no.: CSB-E05129r).
(In an ELISA, binding on a coated surface is turned into a signal by an enzyme label.)

Data set [1] in a line: Change in body weight of experimental animals. The following applies: rats, observation of 10 days, FIG. 1 (bamboo extract 200 mg/kg oral; GH 20 μg/kg s.c.). The method, then: as §1
Regarding the administration method of the bamboo (Bambusae caulis in Taeniam) extract according to the present invention, rats in all the groups except for the Positive Control group were administered into their oral cavities, while all the rats were administered once daily.
The administered substances and dosages in each group are as follows: • Control Group: normal saline solution 1 ml • Positive Control Group: growth hormone 20 μg/kg • Bamboo (Bambusae caulis in Taeniam)-treated Group: 200 mg/kg […]
Rats of each group in Experiment <1-1> were tested for their body weight at pre- and post-feeding of 10 days. […] The measured values were statistically analyzed for mean value and standard deviation.

The test system of another data set is growth plate. The data set is described as follows: Changes in cartilaginous tissues within the growth plate (H&E staining). The following applies: rats, after 10-day administration, FIGS. 5A-7. The method, then:
as §1, §2, §3
In order to measure the length of the growth plate zone, the cartilaginous tissues were fixated after autopsy, followed by H&E staining and microscope examination. The length of the growth plate zone was measured five(5) times for each sample. The resulting mean values as obtained were used as a representative value for evaluating their significance.

As to “GH: Growth hormone positive control, Eutropin (LG Life Sciences, South Korea), injected subcutaneously at 20 μg/kg once daily”, the Total tibia length entry in the data set on tibia is “increased greater than that of the Control group”. The “Level of osteocalcin in the serum” value in the data set with osteocalcin was “significantly increased”. In addition, the Weight change entry in data set [1] was “no significant difference in weight change”. Also, in the data set on growth plate, the “Length of the hypertrophic zone within the growth plate” value is recorded as “increased greater than that of the Control group” and the “Length of the proliferative zone within the growth plate” value is given as “increased greater than that of the Control group”.
